# Patent publication US7910751B2, “Heterocyclidene acetamide derivative” (Mochida Pharmaceutical Co., Ltd., priority 2005, dated 2011)
# Target: T1, human TRPV1 (Homo sapiens, UniProt Q8NER1)
# T1 construct: expressed in transfected cells; host or cells: CHO-K1
# Assay: Measurement of capsaicin-induced Ca influx in human TRPV1 transformed CHO cell line using FDSS-6000
# Type: cell-based
# Details: concentration at which the capsaicin concentration-reaction curve is shifted two times to the right, human TRPV1 transformed CHO cells
# Description: [Measurement of Capsaicin-Induced Ca Influx in Human TRPV1 Transformed CHO Cell Line]
# (1) Establishment of Human TRPV1 Transformed CHO Cell Line
# Human vanilloid receptor 1 (hTRPV1) cDNA was cloned from a human brain. The cloned hTRPV1 cDNA was incorporated in a pCAGGS vector. The gene of the vector was introduced to a CHO-K1 cell line, thus performing transformation. Clones obtained by limiting dilution were stimulated with capsaicin. Clones with a high responsiveness were selected using an increase in the Ca concentration as an indicator. The selected clones were used for the following experiment.
# (2) Measurement of Ca Influx Using FDSS-6000
# The human TRPV1 transformed CHO cells were seeded in a 96-well plate (with black walls and transparent bottoms, manufactured by Greiner) at a density of 40,000 cells per well. The cells were cultured at 37° C. in 5% CO2 for one night. A loading solution of FLIPR Calcium 3 assay kit (manufactured by Molecular Devices Corporation) containing 2.5 mmol/L of probenecid was then added to each of the wells in the same amount as the culture medium, and the cells were cultured at 37° C. for 60 minutes. After the cells were stimulated with capsaicin (1 nmol/L to 1 μmol/L), the change in the Ca concentration in the cells was measured using FDSS-6000 (λex: 480 nm, λem: 540 nm, manufactured by Hamamatsu Photonics K.K.) for three minutes. The integrated values of the increase rate of the Ca concentration in the cells were calculated for a group treated with the compounds of the present invention and a group treated with a medium, thus allowing capsaicin concentration-reaction curves to be obtained. A concentration (A2 value) of each of the compounds of the present invention, at which the capsaicin concentration-reaction curve obtained when the cells were treated with the medium was shifted two times to the right side, was calculated. The inhibiting effects of the test compounds were compared using this value as an indicator.
# In the case where a compound of the present invention is an agonist, when the cells are treated with the compound of the present invention prior to the capsaicin stimulation, the Ca influx is observed. In Table 1, compounds of the present invention having an A2 value of less than 100 nM are represented by A, and compounds having an A2 value of 100 nM or more are represented by B. When the A2 values of the compounds of the present invention were measured by the above-described method, the compounds have an intensity of 1 μM or less.
# T1 sequence (Q8NER1 whole entry): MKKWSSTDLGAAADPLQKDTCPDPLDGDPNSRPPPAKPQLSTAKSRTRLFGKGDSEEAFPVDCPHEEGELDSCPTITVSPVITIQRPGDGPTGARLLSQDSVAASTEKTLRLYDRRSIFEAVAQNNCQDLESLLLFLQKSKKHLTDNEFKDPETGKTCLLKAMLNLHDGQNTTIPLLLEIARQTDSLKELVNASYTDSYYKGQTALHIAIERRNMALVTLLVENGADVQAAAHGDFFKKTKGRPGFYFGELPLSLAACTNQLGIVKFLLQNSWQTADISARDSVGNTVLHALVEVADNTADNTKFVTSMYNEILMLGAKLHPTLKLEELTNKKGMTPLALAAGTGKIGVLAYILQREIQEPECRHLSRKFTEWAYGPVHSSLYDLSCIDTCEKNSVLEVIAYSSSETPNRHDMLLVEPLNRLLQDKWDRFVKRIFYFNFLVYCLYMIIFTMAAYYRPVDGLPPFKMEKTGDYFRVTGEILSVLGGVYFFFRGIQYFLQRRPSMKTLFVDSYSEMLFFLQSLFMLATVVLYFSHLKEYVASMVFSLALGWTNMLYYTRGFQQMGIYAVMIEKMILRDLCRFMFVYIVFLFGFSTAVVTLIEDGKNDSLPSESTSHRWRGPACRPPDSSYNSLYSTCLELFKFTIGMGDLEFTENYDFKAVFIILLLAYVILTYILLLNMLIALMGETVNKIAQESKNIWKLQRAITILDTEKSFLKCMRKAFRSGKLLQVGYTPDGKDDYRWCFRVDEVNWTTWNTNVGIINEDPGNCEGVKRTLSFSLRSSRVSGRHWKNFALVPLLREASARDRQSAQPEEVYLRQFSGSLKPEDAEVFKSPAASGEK
row,Compound,A2 VALUE
1,"O=C(C=C1COCc2cc(C(F)(F)F)ccc21)Nc1cccc2c1CC(O)CC2 (stereo in doubt) [Example 237, (E)-2-(7-trifluoromethyl-isochroman-4-ylidene)-N-(7-hydroxy-5,6,7,8-tetrahydronaphthalen-1-yl)acetamide]",A (compounds of the present invention having an A2 value of less than 100 nM are represented by A)
2,"O=C(/C=C1\CCOc2ccccc21)Nc1ccc2c(c1)OCCO2 [Example 1, (E)-2-(chroman-4-ylidene)-N-(2,3-dihydrobenzo[b][1,4]dioxin-6-yl)acetamide]",B (compounds having an A2 value of 100 nM or more are represented by B)
3,"O=C(/C=C1\CCOc2ccccc21)Nc1cccc2cnccc12 [Example 2, (E)-2-(chroman-4-ylidene)-N-(isoquinolin-5-yl)acetamide]",B (compounds having an A2 value of 100 nM or more are represented by B)
4,"CC(C)(C)c1ccc2c(c1)OCC/C2=C\C(=O)NC1CCc2cccnc2C1 (stereo not shown) [Example 3, (E)-2-(7-tert-butyl-chroman-4-ylidene)-N-(5,6,7,8-tetrahydroquinolin-7-yl)acetamide]",A (compounds of the present invention having an A2 value of less than 100 nM are represented by A)
5,"CC(C)(C)c1ccc2c(c1)OCC/C2=C\C(=O)Nc1cccc2cnccc12 [Example 4, (E)-2-(7-tert-butyl-chroman-4-ylidene)-N-(isoquinolin-5-yl)acetamide]",A (compounds of the present invention having an A2 value of less than 100 nM are represented by A)
6,"CC(C)(C)c1ccc2c(c1)OCC/C2=C\C(=O)Nc1ccc2cccnc2c1 [Example 5, (E)-2-(7-tert-butyl-chroman-4-ylidene)-N-(quinolin-7-yl)acetamide]",A (compounds of the present invention having an A2 value of less than 100 nM are represented by A)
7,"O=C(/C=C1\CCOc2cc(C(F)(F)F)ccc21)NC1CCc2cccnc2C1 (stereo not shown) [Example 6, (E)-2-(7-trifluoromethyl-chroman-4-ylidene)-N-(5,6,7,8-tetrahydroquinolin-7-yl)acetamide]",A (compounds of the present invention having an A2 value of less than 100 nM are represented by A)
8,"O=C(/C=C1\CCOc2cc(C(F)(F)F)ccc21)Nc1cccc2cnccc12 [Example 7, (E)-2-(7-trifluoromethyl-chroman-4-ylidene)-N-(isoquinolin-5-yl)acetamide]",A (compounds of the present invention having an A2 value of less than 100 nM are represented by A)
9,"O=C(/C=C1\CCOc2cc(C(F)(F)F)ccc21)Nc1ccc2cccnc2c1 [Example 8, (E)-2-(7-trifluoromethyl-chroman-4-ylidene)-N-(quinolin-7-yl)acetamide]",A (compounds of the present invention having an A2 value of less than 100 nM are represented by A)
10,"O=C(/C=C1\CCCOc2cc(C(F)(F)F)ccc21)Nc1ccc2c(c1)OCCO2 [Example 9, (E)-2-(8-trifluoromethyl-3,4-dihydrobenzo[b]oxepin-5(2H)-ylidene)-N-(2,3-dihydrobenzo[b][1,4]dioxin-6-yl)acetamide]",A (compounds of the present invention having an A2 value of less than 100 nM are represented by A)
11,"O=C(/C=C1\CCCOc2cc(C(F)(F)F)ccc21)NC1CCc2cccnc2C1 (stereo not shown) [Example 10, (E)-2-(8-trifluoromethyl-3,4-dihydrobenzo[b]oxepin-5(2H)-ylidene)-N-(5,6,7,8-tetrahydroquinolin-7-yl)acetamide]",A (compounds of the present invention having an A2 value of less than 100 nM are represented by A)
12,"O=C(/C=C1\CCCOc2cc(C(F)(F)F)ccc21)Nc1cccc2cnccc12 [Example 11, (E)-2-(8-trifluoromethyl-3,4-dihydrobenzo[b]oxepin-5(2H)-ylidene)-N-(isoquinolin-5-yl)acetamide]",A (compounds of the present invention having an A2 value of less than 100 nM are represented by A)
13,"O=C(/C=C1\CCCOc2cc(C(F)(F)F)ccc21)Nc1ccc2nccnc2c1 [Example 12, (E)-2-(8-trifluoromethyl-3,4-dihydrobenzo[b]oxepin-5(2H)-ylidene)-N-(quinoxalin-6-yl)acetamide]",A (compounds of the present invention having an A2 value of less than 100 nM are represented by A)
14,"O=C(/C=C1\CCCOc2cc(C(F)(F)F)ccc21)Nc1ccc2cccnc2c1 [Example 13, (E)-2-(8-trifluoromethyl-3,4-dihydrobenzo[b]oxepin-5(2H)-ylidene)-N-(quinolin-7-yl)acetamide]",A (compounds of the present invention having an A2 value of less than 100 nM are represented by A)
15,"CC(C)(C)c1ccc(NC(=O)/C=C2\CCCOc3cc(C(F)(F)F)ccc32)cc1 [Example 14, (E)-N-(4-tert-butylphenyl)-2-(8-trifluoromethyl-3,4-dihydrobenzo[b]oxepin-5(2H)-ylidene)acetamide]",A (compounds of the present invention having an A2 value of less than 100 nM are represented by A)
16,"O=C(/C=C1\CCCOc2cc(C(F)(F)F)ccc21)Nc1ccc(C(F)(F)F)cc1 [Example 15, (E)-2-(8-trifluoromethyl-3,4-dihydrobenzo[b]oxepin-5(2H)-ylidene)-N-(4-trifluoromethylphenyl)acetamide]",B (compounds having an A2 value of 100 nM or more are represented by B)
17,"COc1cccc(NC(=O)/C=C2\CCCOc3cc(C(F)(F)F)ccc32)c1 [Example 16, (E)-2-(8-trifluoromethyl-3,4-dihydrobenzo[b]oxepin-5(2H)-ylidene)-N-(3-methoxyphenyl)acetamide]",A (compounds of the present invention having an A2 value of less than 100 nM are represented by A)
18,"CN1CCCc2ccc(NC(=O)/C=C3\CCCOc4cc(C(F)(F)F)ccc43)cc21 [Example 17, (E)-2-(8-trifluoromethyl-3,4-dihydrobenzo[b]oxepin-5(2H)-ylidene)-N-(1,2,3,4-tetrahydro-1-methylquinolin-7-yl)acetamide]",A (compounds of the present invention having an A2 value of less than 100 nM are represented by A)
19,"O=C(/C=C1\CCCOc2cc(C(F)(F)F)ccc21)Nc1cccc2ccc(O)cc12 [Example 18, (E)-2-(8-trifluoromethyl-3,4-dihydrobenzo[b]oxepin-5(2H)-ylidene)-N-(7-hydroxynaphthalen-1-yl)acetamide]",A (compounds of the present invention having an A2 value of less than 100 nM are represented by A)
20,"Cc1nc2cc(NC(=O)/C=C3\CCCOc4cc(C(F)(F)F)ccc43)ccc2s1 [Example 19, (E)-2-(8-trifluoromethyl-3,4-dihydrobenzo[b]oxepin-5(2H)-ylidene)-N-(2-methyl-1,3-benzothiazolo-5-yl)acetamide]",A (compounds of the present invention having an A2 value of less than 100 nM are represented by A)
21,"O=C(/C=C1\CCCOc2cc(C(F)(F)F)ccc21)Nc1cccnc1N1CCOCC1 [Example 20, (E)-2-(8-trifluoromethyl-3,4-dihydrobenzo[b]oxepin-5(2H)-ylidene)-N-(2-morpholinopyridin-3-yl)acetamide]",B (compounds having an A2 value of 100 nM or more are represented by B)
22,"Cc1cc(=O)oc2cc(NC(=O)/C=C3\CCCOc4cc(C(F)(F)F)ccc43)ccc12 [Example 21, (E)-2-(8-trifluoromethyl-3,4-dihydrobenzo[b]oxepin-5(2H)-ylidene)-N-(4-methyl-2-oxo-2H-chromen-7-yl)acetamide]",B (compounds having an A2 value of 100 nM or more are represented by B)
23,"O=C(/C=C1\CCCOc2cc(C(F)(F)F)ccc21)Nc1ccc(Oc2ccccc2)nc1 [Example 22, (E)-2-(8-trifluoromethyl-3,4-dihydrobenzo[b]oxepin-5(2H)-ylidene)-N-(6-phenoxypyridin-3-yl)acetamide]",B (compounds having an A2 value of 100 nM or more are represented by B)
24,"O=C(/C=C1\CCCOc2cc(C(F)(F)F)ccc21)Nc1ccc2c(c1)C(=O)CCC2 [Example 23, (E)-2-(8-trifluoromethyl-3,4-dihydrobenzo[b]oxepin-5(2H)-ylidene)-N-(1,2,3,4-tetrahydro-1-oxonaphthalen-7-yl)acetamide]",A (compounds of the present invention having an A2 value of less than 100 nM are represented by A)
25,"O=C(/C=C1\CCCOc2cc(C(F)(F)F)ccc21)Nc1ccc2c(c1)C(=O)OC2 [Example 24, (E)-2-(8-trifluoromethyl-3,4-dihydrobenzo[b]oxepin-5(2H)-ylidene)-N-(1,3-dihydro-1-oxoisobenzofuran-6-yl)acetamide]",A (compounds of the present invention having an A2 value of less than 100 nM are represented by A)
